# Assay results taken from patent publication US11389449B2, “Treatment of metabolic syndrome with an sGC stimulator” (Cyclerion Therapeutics, Inc., priority 2017, dated 2022).
# How the values were obtained:
# ZSF1 obese rats [1] = assay: ZSF1 rat study: serum clinical chemistry (cholesterol, triglycerides), body weight, clinical observations; assay type: in vivo
# Text: (§1) Blood and 24-hour urine samples were obtained from all animals at day 0 (15 weeks of age; prior to the initiation of enalapril treatment). Animals in Groups 3, 7, 8 and 9 were placed on drinking water containing enalapril and kept on Purina 5008 rodent chow (C13000). Animals in Group 1, 2, 4, 5 and 6 were kept on Purina 5008 rodent chow and drinking water. Ten days after the initiation of enalapril treatment, blood and 24-hour urine samples were collected from all animals. After day 10 blood and urine collections, animals in Groups 4, 5 and 6 received Compound I at 1, 3 and 10 mg/kg/day, respectively for 11 weeks. In addition to enalapril treatment, animals in Groups 7, 8 and 9 received Compound I at 1, 3 and 10 mg/kg/day, respectively for an additional 11 weeks.
# Body weight and 24-hour water intake were obtained at least once every other week. 24-hour food intake was measured at baseline and week 8.
# Plasma (for biomarker) and serum (for clinical chemistry analysis) samples were collected from all treatment groups at baseline, day 10, weeks 5 and 9 prior to placing the animals into the metabolic cages. Plasma samples were obtained from Groups 3-9 for measurement of compound exposure levels at weeks 5 and 11. Terminal plasma and serum samples were obtained at necropsy.
# For serum samples, blood was collected in serum separator tubes, maintained at room temperature for at least 30 minutes and then centrifuged at 6000 rpm for 10 minutes. Serum samples were stored at −80° C. until analysis. Urine and serum samples were analyzed using the Randox Daytona Clinical Chemistry Analyzer. All measurements were performed in accordance with manufacturer's instructions.
# Animal #8 (in Group 3, ZSF1—enalapril 3 mg/kg/day) was found dead 3 days after the initiation of enalapril treatment.
# ZSF1 obese rats [2] = assay: Fasting serum insulin in ZSF1 rats (Rat Insulin ELISA); assay type: in vivo
# Text: as §1
# (§2) 10 weeks after the initiation of Compound I treatment, animals (27 weeks of age) were fasted for 18 hours. Serum samples were collected for the measurement of fasting insulin levels. Serum insulin levels were determined using the Rat Insulin ELISA kit (Cat #ELR-Insulin, RayBiotech, Inc.)
# (§3) The data are expressed as mean±SEM. […] One-tailed tests were used for comparison of variables. Statistical significance is indicated by P values less than 0.05.
# [3] = system: obese/high fat diet C57Bl/6J mice; assay: Diet induced obesity (DIO) mouse model: body weight and food intake; assay type: in vivo; conditions: DIO HFD mice, approx 6 mg/kg in diet
# Text: (§4) The objective of this animal study was to evaluate the effects of Compound I in the mouse diet induced obesity (DIO) model. Assessments included body weight, food intake, oral glucose tolerance test (OGTT) and fasting plasma biomarkers of metabolic control.
# (§5) Male C57Bl/6J mice with baseline body weights of 25.0-29.0 grams (lean controls) and 31.5-45.0 grams (obese/high fat diet treated) respectively, were used for this study. The lean mice (n=8) were maintained on a standard chow diet. The obese mice were given 60% high fat diet (HFD) starting at 6 weeks of age. All animals were allowed free access to drinking water and chow. The study was begun when the mice were 12 weeks of age and concluded after 4 weeks (16 weeks of age). The obese control group (n=8 mice) was maintained on HFD. The Compound I group (n=8 obese mice) was treated with HFD containing 90 mg Compound I/kg (an approximate dose of 6 mg/kg). Body weights were determined twice weekly and food intake was measured daily for 28 days. An OGTT was performed on each animal at day 28 or 29 and the animals were sacrificed on the following day. On the terminal day, 3 hour fasted blood was collected for compound concentrations and plasma biomarkers analysis including glucose, insulin and triglycerides. Organs were collected, weighed and snap frozen in liquid nitrogen for further analysis.
# ZSF1 obese rats [4] = assay: Oral glucose tolerance test (OGTT) and fasting glucose in ZSF1 rats at week 10; assay type: in vivo, rat
# Experimental: Male ZSF1 rats (body weight 400-430 grams (lean control) and 500-605 grams (obese) at baseline) were used for this study. All animals were housed in a room under controlled conditions of temperature (72±8° F.), relative humidity of 30-70% and a 12-hour light-dark cycle (lights on at 6:00 AM and off at 6:00 PM) at a fully AAALAC accredited, USDA registered and OLAW assured laboratory animal research facility. All animals were allowed free access to rodent chow (Purina 5008+/−test articles) and water (+/−enalapril).
# as §1, §2
# For OGTT, animals were given glucose solution (50% Dextrose) at 2 g/kg via oral gavage. Blood samples were collected prior to oral glucose administration (0 minute) and 30, 60, 90, 120 and 180 minutes after administration. Blood glucose levels were measured using a standard blood glucose monitoring system (AlphaTRAK). The blood glucose reading at time 0 (prior to glucose administration) corresponds to the fasting glucose measurement.
# as §3
# [5] = system: obese/high fat diet C57Bl/6J mice; assay: DIO mouse model: oral glucose tolerance test; assay type: in vivo; conditions: DIO HFD mice, approx 6 mg/kg in diet, week 4
# Text: as §4, §5
# [6] = obese ZSF1 rats, 3 and 10 mg/kg, compared to placebo and enalapril, not statistically significant
smiles,measurement,setting,value
OC(CNc1nc(-c2cc(-c3ccon3)n(Cc3ccccc3F)n2)ncc1F)(C(F)(F)F)C(F)(F)F [Compound I],reduction of weight,ZSF1 obese rats [1]; obese ZSF1 rats,No effects were observed
same,effect on cholesterol levels,ZSF1 obese rats [1]; [6],some reduction in cholesterol was observed
same,effect on triglyceride levels,ZSF1 obese rats [1]; [6],some reduction in TGs was observed
same,clinical observation,"ZSF1 obese rats [1]; rat, in vivo, 1 mg/kg/day",enlarged left kidney's filled with brown fluid consistent with hydronephrosis
same,Fasting Insulin,"ZSF1 obese rats [2]; week 10, Compound I 1 mpk",15.7 ± 3.5 μIU/mL
same,Fasting Insulin,"ZSF1 obese rats [2]; week 10, Compound I 3 mpk",15.6 ± 2.7 μIU/mL
same,Fasting Insulin,"ZSF1 obese rats [2]; week 10, Compound I 10 mpk",11.7 ± 1.6 μIU/mL
same,body weight gain change vs obese controls,"[3]; Day 28, P<0.0001",−37%
same,increase in food intake vs obese controls,"[3]; Day 28, P<0.05",11%
same,cumulative food intake vs obese controls,[3]; days 12-14 and 16-28,Significant increases
same,body weight gain vs obese controls,[3]; from 0.5 weeks for the duration of the study,significant reductions
same,Fasting Blood Glucose (0 minute),ZSF1 obese rats [4]; Compound I 1 mpk,267 ± 38 mg/dL
same,OGTT Area Under Curve (AUC),ZSF1 obese rats [4]; Compound I 1 mpk,84945 ± 5344
same,OGTT Blood Glucose 120 minutes,ZSF1 obese rats [4]; Compound I 1 mpk,475 ± 33 mg/dL
same,OGTT Blood Glucose 180 minutes,ZSF1 obese rats [4]; Compound I 1 mpk,398 ± 30 mg/dL
same,Fasting Blood Glucose (0 minute),ZSF1 obese rats [4]; Compound I 3 mpk,202 ± 10 mg/dL
same,OGTT Area Under Curve (AUC),ZSF1 obese rats [4]; Compound I 3 mpk,77402 ± 3526
same,OGTT Blood Glucose 120 minutes,ZSF1 obese rats [4]; Compound I 3 mpk,424 ± 19 mg/dL
same,OGTT Blood Glucose 180 minutes,ZSF1 obese rats [4]; Compound I 3 mpk,355 ± 24 mg/dL
same,Fasting Blood Glucose (0 minute),ZSF1 obese rats [4]; Compound I 10 mpk,194 ± 9 mg/dL
same,OGTT Area Under Curve (AUC),ZSF1 obese rats [4]; Compound I 10 mpk,77090 ± 1817
same,OGTT Blood Glucose 120 minutes,ZSF1 obese rats [4]; Compound I 10 mpk,421 ± 11 mg/dL
same,OGTT Blood Glucose 180 minutes,ZSF1 obese rats [4]; Compound I 10 mpk,385 ± 14 mg/dL
same,Fasting blood glucose,[5],not reduced
same,OGTT area above baseline change vs obese controls,[5]; P<0.05,−47%
same,OGTT area under the curve change vs obese controls,[5]; P<0.05,−22%
same,blood glucose excursion in OGTT vs obese controls,[5]; from 30 to 120 minutes,significant reductions
